Laboratory results: ChEMBL document CHEMBL4373709 (J Med Chem, 2019)
Active and inactive are the calls of the source. The calls are words filed in the database; no cut-off is given here.

Experiments:
[1] = biological target: T1, Neurotensin receptor type 1 (Homo sapiens, UniProt P30989); experiment: Allosteric modulation of human GFP-fused PK-tagged Gq-coupled NTR1 expressed in CHOK1 cells assessed as induction of NT (8 to 13) peptide-mediated beta-arrestin recruitment measured after 90 mins by pathhunter assay; type: cell-based
[2] = biological target: T1, Neurotensin receptor type 1; experiment: Allosteric modulation of human GFP-fused PK-tagged Gq-coupled NTR1 expressed in CHOK1 cells assessed as induction of NT (8 to 13) peptide-mediated beta-arrestin recruitment measured after 90 mins by pathhunter assay relative to NT (8 to 13) peptide; type: cell-based
[3] = biological target: Neurotensin receptor type 2 (Homo sapiens) (UniProt O95665); experiment: Allosteric modulation of NTR2 (unknown origin) assessed as induction of NT (8 to 13) peptide-mediated beta-arrestin recruitment at >80 uM by pathhunter assay
[4] = biological target: T1, Neurotensin receptor type 1; experiment: Agonist activity at NTR1 (unknown origin) expressed in CHO cells assessed as effect on calcium flux by Fluo-4 NW calcium dye based fluorescence assay; type: functional, cell-based
[5] = biological target: G-protein coupled receptor 35 (Homo sapiens) (UniProt Q9HC97); experiment: Allosteric modulation of human PK-tagged Gi/Go-coupled GPR35 expressed in CHOK1 cells assessed as induction of zaprinast-mediated beta-arrestin recruitment by pathhunter assay; type: cell-based
[6] = biological target: G-protein coupled receptor 55 (Homo sapiens) (UniProt Q9Y2T6); experiment: Allosteric modulation of human PK-tagged Gq-coupled GPR55 expressed in CHOK1 cells assessed as induction of L-alpha-Lysophosphatidylinositol-mediated beta-arrestin recruitment by pathhunter assay; type: functional, cell-based
[7] = biological target: Kappa-type opioid receptor (Homo sapiens) (UniProt P41145); experiment: Allosteric modulation of human PK-tagged Gi/Go-coupled KOR expressed in CHOK1 cells assessed as induction of dynorphin A-mediated beta-arrestin recruitment by pathhunter assay; type: cell-based
Chain of Kappa-type opioid receptor (Homo sapiens) (P41145 whole entry): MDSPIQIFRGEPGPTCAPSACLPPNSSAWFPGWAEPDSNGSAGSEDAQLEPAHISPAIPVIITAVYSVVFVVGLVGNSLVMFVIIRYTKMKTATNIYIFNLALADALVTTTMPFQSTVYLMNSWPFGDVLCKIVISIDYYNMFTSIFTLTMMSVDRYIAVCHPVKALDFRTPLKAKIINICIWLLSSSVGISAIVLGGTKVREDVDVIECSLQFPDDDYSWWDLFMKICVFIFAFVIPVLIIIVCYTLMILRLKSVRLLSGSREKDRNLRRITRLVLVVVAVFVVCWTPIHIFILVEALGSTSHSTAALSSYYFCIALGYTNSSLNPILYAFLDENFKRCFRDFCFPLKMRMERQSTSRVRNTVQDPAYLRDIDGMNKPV

Chain of Neurotensin receptor type 2 (Homo sapiens) (O95665 whole entry): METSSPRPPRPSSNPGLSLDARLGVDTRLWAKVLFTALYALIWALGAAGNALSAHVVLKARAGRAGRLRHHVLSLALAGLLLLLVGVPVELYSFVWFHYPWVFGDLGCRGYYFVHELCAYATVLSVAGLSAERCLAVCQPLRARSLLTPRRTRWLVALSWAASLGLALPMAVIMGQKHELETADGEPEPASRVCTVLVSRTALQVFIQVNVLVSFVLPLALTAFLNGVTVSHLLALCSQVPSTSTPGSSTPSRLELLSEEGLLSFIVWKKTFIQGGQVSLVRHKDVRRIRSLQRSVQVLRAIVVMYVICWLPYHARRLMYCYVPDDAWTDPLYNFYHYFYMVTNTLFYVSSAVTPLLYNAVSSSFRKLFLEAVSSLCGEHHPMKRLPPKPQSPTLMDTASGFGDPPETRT
T1 sequence (P30989 whole entry, the tested form may be a part): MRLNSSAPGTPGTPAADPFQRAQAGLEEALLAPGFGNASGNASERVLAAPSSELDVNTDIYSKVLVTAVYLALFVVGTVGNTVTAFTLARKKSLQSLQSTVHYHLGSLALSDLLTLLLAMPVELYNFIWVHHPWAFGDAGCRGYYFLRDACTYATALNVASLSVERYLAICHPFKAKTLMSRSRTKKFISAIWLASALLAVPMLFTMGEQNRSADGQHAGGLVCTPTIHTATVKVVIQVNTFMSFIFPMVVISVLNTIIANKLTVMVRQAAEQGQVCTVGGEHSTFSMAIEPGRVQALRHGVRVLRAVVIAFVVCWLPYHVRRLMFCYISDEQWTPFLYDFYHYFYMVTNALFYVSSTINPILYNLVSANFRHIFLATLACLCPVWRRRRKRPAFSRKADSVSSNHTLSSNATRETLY
Chain of G-protein coupled receptor 55 (Homo sapiens) (Q9Y2T6 whole entry): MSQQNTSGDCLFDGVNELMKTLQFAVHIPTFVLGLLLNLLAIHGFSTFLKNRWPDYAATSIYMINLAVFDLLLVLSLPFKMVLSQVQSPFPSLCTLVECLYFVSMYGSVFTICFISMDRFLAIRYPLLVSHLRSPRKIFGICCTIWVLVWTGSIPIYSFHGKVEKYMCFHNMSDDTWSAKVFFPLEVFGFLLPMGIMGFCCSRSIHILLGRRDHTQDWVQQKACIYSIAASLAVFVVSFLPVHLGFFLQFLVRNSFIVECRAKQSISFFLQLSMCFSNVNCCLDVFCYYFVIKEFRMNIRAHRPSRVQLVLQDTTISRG
Chain of G-protein coupled receptor 35 (Homo sapiens) (Q9HC97 whole entry): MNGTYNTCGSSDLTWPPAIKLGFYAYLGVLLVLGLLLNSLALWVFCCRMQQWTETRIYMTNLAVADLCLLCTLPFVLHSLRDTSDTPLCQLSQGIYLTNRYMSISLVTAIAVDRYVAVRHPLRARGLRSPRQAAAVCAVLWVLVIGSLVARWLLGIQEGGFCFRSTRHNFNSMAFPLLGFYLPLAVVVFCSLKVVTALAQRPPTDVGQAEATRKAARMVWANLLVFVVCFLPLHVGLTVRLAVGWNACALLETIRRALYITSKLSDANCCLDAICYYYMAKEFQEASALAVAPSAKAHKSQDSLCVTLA

| SMILES | EC50 [1] [µM] | Emax [2] [%] | Activity [3] | Activity [4] | Activity [5] | Activity [6] | Activity [7] |
| --- | --- | --- | --- | --- | --- | --- | --- |
| COCCN(C)c1ccc2nc(C3(C)CC3)nc(N3CCC(c4ccccc4OC)CC3)c2c1 | 2.23 | 60 | inactive |  |  |  |  |
| COc1ccccc1C1CCN(c2nc(-c3ccccc3)nc3ccc(N(C)CCO)cc23)CC1 | 4.23 | 70 | inactive |  |  |  |  |
| CCCN(C)c1cc2c(N3CCC(c4ccccc4OC)CC3)nc(C3CC3)nc2cc1F | 3.01 | 68 | inactive |  |  |  |  |
| COc1ccccc1C1CCN(c2nc(C3CC3)nc3c(F)cc(N(C)CCO)cc23)CC1 | 0.16 | 100 | inactive |  |  |  |  |
| COc1ccccc1C1CCN(c2nc(C3CC3)nc3ccc(N(C)CCO)c(Cl)c23)CC1 | 0.5 | 91 | inactive |  |  |  |  |
| COc1cc2nc(C3CC3)nc(N3CCC(c4ccccc4OC)CC3)c2cc1OC | 1.04 | 89 | inactive |  |  |  |  |
| COc1ccccc1C1CCN(c2nc(C3CC3)nc3ccc(N4CC[C@@H](O)C4)cc23)CC1 | 0.44 | 79 | inactive |  |  |  |  |
| COc1ccccc1C1CCN(c2nc(C3CC3)nc3ccc(N4CCC(OC)CC4)cc23)CC1 | 2.78 | 79 | inactive |  |  |  |  |
| COc1ccccc1C1CCN(c2nc(C3CC3)nc3ccc(N(C)C)cc23)CC1 | 0.888 | 89 | inactive |  |  |  |  |
| COc1ccccc1C1CCN(c2nc(C3(C)CC3)nc3ccc(N(C)CCN4CCOCC4)cc23)CC1 | 3.36 | 71 | inactive |  |  |  |  |
| COc1ccccc1C1CCN(c2nc(C3CCC3)nc3ccc(N(C)CCO)cc23)CC1 | 1.05 | 80 | inactive |  |  |  |  |
| COCCN(C)c1ccc2nc(C3CC3)nc(N3CCC(c4ccccc4OC)CC3)c2c1 | 1.12 | 79 | inactive |  |  |  |  |
| COc1ccccc1C1CCN(c2nc(C3(F)CC3)nc3ccc(N(C)CCN4CCOCC4)cc23)CC1 | 1.72 | 97 | inactive |  |  |  |  |
| COc1cc2nc(C3CC3)nc(C3CCN(c4ccccc4OC)CC3)c2cc1OC | > 20 |  | inactive |  |  |  |  |
| CCCN(C)c1ccc2nc(C3CC3)nc(N3CCC(c4ccccc4OC)CC3)c2c1 | 0.732 | 68 | inactive |  |  |  |  |
| CCN(C)c1ccc2nc(C3CC3)nc(N3CCC(c4ccccc4OC)CC3)c2c1 | 0.56 | 80 | inactive |  |  |  |  |
| COc1ccccc1C1CCN(c2nc(C3(F)CC3)nc3ccc(N(C)C)cc23)CC1 | 0.92 | 84 | inactive |  |  |  |  |
| COc1ccccc1C1CCN(c2nc(C3CC3)nc3ccc(N(C)CCN4CCOCC4)cc23)CC1 | 0.81 | 92 | inactive |  |  |  |  |
| COc1ccccc1N1CCN(c2nc(C3CC3)nc3ccc(N(C)C)cc23)CC1 | 0.71 |  |  |  |  |  |  |
| COc1ccccc1C1CCN(c2nc(C3CC3)nc3c(Cl)cc(N(C)CCO)cc23)CC1 | 0.22 | 95 | inactive |  |  |  |  |
| COc1ccccc1C1CCN(c2nc(C3CC3)nc3cc(C)c(N(C)CCO)cc23)CC1 | 0.56 | 88 | inactive |  |  |  |  |

| SMILES | EC50 [1] [µM] | Emax [2] [%] | Activity [3] | Activity [4] | Activity [5] | Activity [6] | Activity [7] |
| --- | --- | --- | --- | --- | --- | --- | --- |
| COc1ccccc1C1CCN(c2nc(C3CC3)nc3ccc(N4CC[C@H](O)C4)cc23)CC1 | 1.01 | 78 | inactive |  |  |  |  |
| COc1ccccc1C1CCN(c2nc(C3CC3)nc3ccc(N4CC[C@@H](OC)C4)cc23)CC1 | 0.64 | 93 | inactive |  |  |  |  |
| COc1ccccc1C1CCN(c2nc(C3(C)CCC3)nc3ccc(N(C)CCO)cc23)CC1 | 1.48 | 75 | inactive |  |  |  |  |
| COc1ccccc1C1CCN(c2nc(C3(C)CC3)nc3ccc(N(C)CCO)cc23)CC1 |  | 90 | inactive |  |  |  |  |
| COc1ccccc1C1CCN(c2nc(C3(C(F)(F)F)CC3)nc3ccc(N(C)CCN4CCOCC4)cc23)CC1 | 3.81 | 78 | inactive |  |  |  |  |
| COc1ccccc1C1CCN(c2nc(C3(F)CCC3)nc3ccc(N(C)CCO)cc23)CC1 | 0.27 | 96 | inactive |  |  |  |  |
| COc1ccccc1C1CCN(c2nc(C3CC3)nc3ccc(N4CCC(O)CC4)cc23)CC1 | 6.72 | 82 | inactive |  |  |  |  |
| COc1ccccc1C1CCN(c2nc(C3CC3)nc3ccc(N(C)CCO)cc23)CC1 | 0.478 | 92 | inactive |  |  |  |  |
| COc1ccccc1C1CCN(c2nc(C3CCCC3)nc3ccc(N(C)CCO)cc23)CC1 | 3.88 | 78 | inactive |  |  |  |  |
| COc1ccccc1C1CCN(c2nc(C3CC3)nc3ccc(N4CC[C@H](OC)C4)cc23)CC1 | 0.81 | 82 | inactive |  |  |  |  |
| COc1ccccc1C1CCN(c2nc(C3CC3)nc3cc(Cl)c(N(C)CCO)cc23)CC1 | 0.6 | 98 | inactive |  |  |  |  |
| CCCN(C)c1ccc2c(N3CCC(c4ccccc4OC)CC3)nc(C3CC3)nc2c1 | 10 | 86 | inactive |  |  |  |  |
| CCCN(C)c1cc2c(N3CCC(c4ccccc4OC)CC3)nc(C3CC3)nc2cc1C | 0.99 | 86 | inactive |  |  |  |  |
| COc1cc2nc(C3CC3)nc(N3CCN(c4ccccc4OC)CC3)c2cc1OC | 2.87 |  | inactive | inactive | inactive | inactive | inactive |
| CCCN(C)c1ccc2nc(C3(F)CC3)nc(N3CCC(c4ccccc4OC)CC3)c2c1 | 1.45 | 80 | inactive |  |  |  |  |
| COc1ccccc1C1CCN(c2nc(C3(C(F)(F)F)CC3)nc3ccc(N(C)CCO)cc23)CC1 | 0.34 | 94 | inactive |  |  |  |  |
| COc1ccccc1C1CCN(c2nc(C3CC3)nc3ccc(N(C)CCO)c(C)c23)CC1 | 1.26 | 93 | inactive |  |  |  |  |
| COCCN(C)c1ccc2nc(C3(F)CC3)nc(N3CCC(c4ccccc4OC)CC3)c2c1 | 1.06 | 86 | inactive |  |  |  |  |
| CCN(C)c1cccc2nc(C3CC3)nc(N3CCC(c4ccccc4OC)CC3)c12 | 6.71 | 60 | inactive |  |  |  |  |
| COc1ccccc1C1CCN(c2nc(C3CC3)nc3ccc(N(C)CCO)c(F)c23)CC1 | 0.59 | 95 | inactive |  |  |  |  |
| COc1ccccc1C1CCN(c2nc(C3CC3)nc3c(C)cc(N(C)CCO)cc23)CC1 | 0.16 | 87 | inactive |  |  |  |  |
